From article PMC7828111, “In Search for Multi-Target Ligands as Potential Agents for Diabetes Mellitus and Its Complications—A Structure-Activity Relationship Study on Inhibitors of Aldose Reductase and Protein Tyrosine Phosphatase 1B” (Molecules, 2021) come the findings set out here.

Broadly, the IC50 is the concentration that gives 50% inhibition.

The structures appear in SMILES notation.

The target in test [1] is T1, human recombinant AR (Homo sapiens, UniProt P15121).
T1 construct: made in house; host or cells: E. coli BL21(DE3)pLysS
Nature of the test: Kinetic analysis of AR inhibition (Lineweaver-Burk and secondary plots). Type of test: biochemical. Here is the method: The kinetic analysis of compounds 4a, 4e and 4f was performed by measuring reaction rates with different L-idose concentrations s (S) in the absence and in the presence of different inhibitors concentrations. Data were analyzed by Linewever-Burk plots.

Test [2] deals with T1, human recombinant AR. The test is described as follows: Inhibition of human recombinant AR, L-idose as substrate (NADPH oxidation at 340 nm). It is filed as biochemical. The note with it: human recombinant AR, 2 mM L-idose as substrate; mean ± S.E.M. The method, then: The human recombinant AR was expressed in BL21(DE3)pLysS E. coli cells and purified to electrophoretic homogeneity as previously described. The purified enzyme (specific activity 5.0 U/mg) was stored at −80 °C in 10 mM sodium phosphate buffer pH 7.0 containing 2 mM dithiothreitol and 30% (w/v) glycerol. AR activity was determined at 37 °C as previously described evaluating the decrease in absorbance at 340 nm linked to NADPH oxidation. […] One unit of enzyme activity is the amount that catalyzes the conversion of 1 μmol of substrate/min in the above assay conditions.
All compounds tested as aldose reductase inhibitors were dissolved in DMSO and added to the assay mixture containing 8 mU of purified AR. The reaction was started by addition of the substrate. The DMSO concentration in all the assays was kept constant at 0.5% (v/v) in order to avoid effects on AR activity.
The IC50 values were determined by nonlinear regression analysis using Prism GraphPad 6.0 fitting experimental data to the following equation:(1) vi/v0= Max−Min/1+( I/IC50)^slope +Min
In the equation, vi/v0, represents the ratio between the activity measured in the presence of the inhibitor and the activity measured in the absence of inhibitor; Max and Min represent the expected maximal and minimal value of the activity and were fixed at 1 and zero, respectively. Slope, which describes the steepness of curve in the transition region, was fixed at −1. For each compound, at least five different concentrations of inhibitor in the triplicate assay were analyzed.

Test [3] deals with insulin receptor (IRβ) phosphorylation in C2C12 cells. Nature of the test: Insulin receptor phosphorylation in C2C12 cells (western blot). Type of test: cell-based, murine. Here is the method:
The insulin mimetic/sensitizing activity of compound 4f was evaluated on both HepG2 and C2C12 cells. Starved HepG2 and C2C12 cells were incubated in the presence of compound 4f (25 μM) for 90 min and after stimulated or not with insulin (10 nM). Then, cells extracts were analysed to evaluate phosphorylation levels of the insulin receptor.
HepG2 and differentiated C2C12 cells were starved for 24 h and then incubated in the presence of compound 4f (25 μM, final concentration) for 90 min. After this time, cells were washed with PBS and then stimulated or not with 10 nM insulin for 30 min. Then, cells were lysed and cellular proteins separated on a 12% SDS-PAGE. After electrophoresis, cellular proteins were transferred on a PVDF membrane by western blot technique and then probed against antibodies able to specifically recognize insulin receptor (I2033 Sigma Aldrich) or phosphorylated form of IR (MABS65, Sigma-Aldrich). Sample loading was evaluated probing PVDF membrane with anti-actin antibodies (ABT1485 Sigma Aldrich).
(In general: In western blotting, separated proteins are transferred to a membrane and probed.)

As for `O=C(O)CCN1C(=O)/C(=C/c2ccc(OCCc3ccccc3)cc2)SC1=S` [4f, 3-[(5Z)-4-Oxo-{5-[4-(2-phenylethoxy)phenyl]methylidene}-2-thioxothiazolidin-3-yl]propanoic acid], the “AR Ki relative to K′i” value in test [1] (Ki higher than K′i) is given as “at least ten-fold higher”. Also, in test [1] (L-idose as substrate), the “AR K′i (apparent dissociation constant, EIS complex)” value was 2.9 ± 0.12 µM and the “Mechanism of AR inhibition” value is recorded as “uncompetitive inhibitors”. Moreover, the Ki in test [1] (L-idose as substrate, read-out: AR Ki (apparent dissociation constant)) is greater than 30 µM. The IC50 in test [2] stood at 5.3 ± 0.4 µM. Further, in test [3] (C2C12, 25 μM for 90 min, then 10 nM insulin 30 min), the “IRβ phosphorylation levels after insulin versus insulin alone” value is “significantly higher”. The “Effect on basal IR phosphorylation levels” value in test [3] (C2C12, 25 μM, 90 min, no insulin) is reported as “did not appreciably affect”.
